Data reported in patent US20040014209A1, “Compositions and methods for modulating cell differentiation” (priority 2002, published 2004).

Target: T1, Wnt8 (Xenopus laevis, UniProt P28026)
T1 construct: expressed in transfected cells; host or cells: Xenopus laevis embryos (mRNA injection at the two-cell stage), animal caps isolated at stage 9
T1 sequence (P28026 23-358): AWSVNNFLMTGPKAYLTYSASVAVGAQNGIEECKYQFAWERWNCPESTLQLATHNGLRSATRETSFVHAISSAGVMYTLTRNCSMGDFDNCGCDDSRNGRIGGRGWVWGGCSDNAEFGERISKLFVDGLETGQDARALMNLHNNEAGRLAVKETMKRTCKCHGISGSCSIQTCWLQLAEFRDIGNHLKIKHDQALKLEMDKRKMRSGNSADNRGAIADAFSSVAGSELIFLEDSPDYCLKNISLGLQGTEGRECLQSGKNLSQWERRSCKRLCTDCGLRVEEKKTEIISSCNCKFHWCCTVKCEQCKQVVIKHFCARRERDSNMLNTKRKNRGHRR
Experiment: Block of Wnt8 induction of Siamois in animal caps
Type: cell-based
Details: RT-PCR at stage 10.5
Method: FIG. 6. dkk-1 and crescent, but not frzb, induce cardiac specific gene expression in noncardiogenic tissue. (A) mRNAs encoding various Wnt and BMP antagonists were injected equatorially into ventral blastomeres at the four-cell stage. Ventral marginal zone (VMZ) tissue was then explanted from Xenopus laevis at stage 10 and cultured until analyzed by RT-PCR for gene expression at stage 30 (see Materials and Methods). (B) Injection of dkk-1 or crescent induced both markers of cardiac mesoderm (Tbx5 and Nkx2.5) and heart muscle-specific genes (cardiac isoform of troponin-I, Tnlc, and myosin heavy chain-α, MHCα) in VMZ tissue. frzb, in contrast, induced muscle actin (m. actin), which is primarily a skeletal muscle marker, but not cardiac specific gene expression. […] Wnt8 and Wnt antagonist mRNAs were injected into the animal region of two-cell-stage embryos and caps were isolated at stage 9, cultured, and processed for RT-PCR at stage 10.5 (F). […] EF1α expression is shown as a control for the RT reaction in all cases.
The reason for the difference in doses of dkk-1 and crescent mRNA required to induce muscle actin and the cardiac-specific markers was explored further by evaluating their relative ability to block Siamois induction by Wnt8 (FIG. 6F, G). […]

For dkk-1, the “Wnt8 induction of Siamois” value was “block Wnt8 induction of Siamois”.
